Patent US20230219906A1, “MACROCYCLIC-2-AMINO-3-FLUORO-BUT-3-ENAMIDES AS INHIBITORS OF MCL-1” (Janssen Pharmaceutica NV, priority 2020, published 2023)
Like-named read-outs stand apart in the source and are kept apart here.

How the values were obtained:
[1] = system: MOLP-8 human multiple myeloma cell line; experiment: Caspase-Glo 3/7 apoptosis induction assay in MOLP-8 cells; assay type: cell-based; conditions: caspase-3/7 activity, 2 hours at 37° C., averaged over all runs on all batches, read-out: MOLP8 AC50
Text: MCL-1 is a regulator of apoptosis and is highly over-expressed in tumor cells that escape cell death. The assay evaluates the cellular potency of small-molecule compounds targeting regulators of the apoptosis pathway, primarily MCL-1, Bfl-1, Bcl-2, and other proteins of the Bcl-2 family. Protein-protein inhibitors disrupting the interaction of anti-apoptotic regulators with BH3-domain proteins initiate apoptosis.
The Caspase-Glo® 3/7 Assay is a luminescent assay that measures caspase-3 and −7 activities in purified enzyme preparations or cultures of adherent or suspension cells. The assay provides a proluminescent caspase-3/7 substrate, which contains the tetrapeptide sequence DEVD. This substrate is cleaved to release aminoluciferin, a substrate of luciferase used in the production of light. Addition of the single Caspase-Glo® 3/7 Reagent in an “add-mix-measure” format results in cell lysis, followed by caspase cleavage of the substrate and generation of a “glow-type” luminescent signal.
This assay uses the MOLP-8 human multiple myeloma cell line, which is sensitive to MCL-1 inhibition.
Cell cultures were maintained between 0.2 and 2.0×10^6 cells/mL. The cells were harvested by collection in 50 mL conical tubes. The cells were then pelleted at 500 g for 5 mins before removing supernatant and resuspension in fresh pre-warmed culture medium. The cells were counted and diluted as needed.
The assay reagent was prepared by transferring the buffer solution to the substrate vial and mixing. The solution may be stored for up to 1 week at 4° C. with negligible loss of signal.
Compounds were delivered in assay-ready plates (Proxiplate) and stored at −20° C. Assays always include 1 reference compound plate containing reference compounds. The plates were spotted with 40 nL of compounds (0.5% DMSO final in cells; serial dilution; […] highest conc. 1/3 dilution, 10 doses, duplicates). The compounds were used at room temperature and 4 μL of pre-warmed media was added to all wells except column 2 and 23. The negative control was prepared by adding 1% DMSO in media. The positive control was prepared by adding the appropriate positive control compound in final concentration of […] in media. The plate was prepared by adding 4 μL negative control to column 23, 4 μL positive control to column 2 and 4 μL cell suspension to all wells in the plate. The plate with cells was then incubated at 37° C. for 2 hours. The assay signal reagent is the Caspase-Glo solution described above, and 8 μL was added to all wells. The plates were then sealed and measured after 30 minutes.
The activity of a test compound was calculated as percent change in apoptosis induction as follows:
% Effect (AC50)=100−(sample-LC)/(HC-LC)*100
% Control=(sample/HC)*100
% Control min=(sample-LC)/(HC-LC)*100

[2] = target: Myeloid Cell Leukemia 1(Mcl-1) (Homo sapiens, UniProt Q07820); experiment: Terbium labeled Mcl-1 HTRF binding assay with Cy5-labeled BIM BH3 peptide; conditions: displacement of Cy5 Bim BH3 peptide; Ki=IC50/(1+[L]/Kd), [L]=8 nM, Kd=10 nM; 60 minutes at room temperature; read-out: Tb-MCL1 Ki
Procedure: Terbium labeled Myeloid Cell Leukemia 1(Mcl-1) homogeneous time-resolved fluorescence (HTRF) binding assay utilizing the BIM BH3 peptide (H2N—(C/Cy5Mal) WIAQELRRIGDEFN-OH) as the binding partner for Mcl-1.
This assay evaluated inhibition of the BH3 domain: Mcl-1 interaction by measuring the displacement of Cy5-labeled BIM BH3 peptide (H2N—(C/Cy5Mal) WIAQELRRIGDEFN-OH) in the HTRF assay format.
The following assay and stock buffers were prepared for use in the assay: (a) Stock buffer: 10 mM Tris-HCl, pH=7.5+150 mM NaCl, filtered, sterilized, and stored at 4° C.; and (b) 1X assay buffer, where the following ingredients were added fresh to stock buffer: 2 mM dithiothreitol (DTT), 0.0025% Tween-20, 0.1 mg/mL bovine serum albumin (BSA). The 1X Tb-Mcl-1+Cy5 Bim peptide solution was prepared by diluting the protein stock solution using the 1X assay buffer (b) to 25 pM Tb-Mcl-1 and 8 nM Cy5 Bim peptide.
Using the Acoustic ECHO, 100 nL of 100x test compound(s) were dispensed into individual wells of a white 384-well Perkin Elmer Proxiplate, for a final compound concentration of 1× and final DMSO concentration of 1%. Inhibitor control and neutral control (NC, 100 nL of 100% DMSO) were stamped into columns 23 and 24 of assay plate, respectively. Into each well of the plate was then dispensed 10 μL of the 1X Tb-Mcl-1+Cy5 Bim peptide solution. The plate was centrifuged with a cover plate at 1000 rpm for 1 minute, then incubated for 60 minutes at room temperature with plates covered.
The TR-FRET signal was read on an BMG PHERAStar FSX MicroPlate Reader at room temperature using the HTRF optic module (HTRF: excitation: 337 nm, light source: laser, emission A: 665 nm, emission B: 620 nm, integration start: 60 μs, integration time: […]).
The BMG PHERAStar FSX MicroPlate Reader was used to measure fluorescence intensity at two emission wavelengths—665 nm and 620 nm—and report relative fluorescence units (RFU) for both emissions, as well as a ratio of the emissions (665 nm/620 nm)*10,000. The RFU values were normalized to percent inhibition as follows:
% inhibition=(((NC−IC)−(compound−IC))/(NC−IC))*100
where IC (inhibitor control, low signal)= mean signal of 1X Tb-MCl-1+Cy5 Bim peptide+inhibitor control or 100% inhibition of Mcl-1; NC (neutral control, high signal)= mean signal 1X Tb-MCl-1+Cy5 Bim peptide with DMSO only or 0% inhibition An 11-point dose response curve was generated to determine IC50 values (using GenData) based on the following equation:
Y=Bottom+(Top−Bottom)/(1+10∧((log IC50−X)*HillSlope))
where Y=% inhibition in the presence of X inhibitor concentration; Top=100% inhibition derived from the IC (mean signal of Mcl-1+inhibitor control); Bottom=0% inhibition derived from the NC (mean signal of Mcl-1+DMSO); Hillslope=Hill coefficient; and IC50=concentration of compound with 50% inhibition in relation to top/neutral control (NC).
In this assay [L]=8 nM and Kd=10 nM

Chain of Myeloid Cell Leukemia 1(Mcl-1) (Q07820 whole entry): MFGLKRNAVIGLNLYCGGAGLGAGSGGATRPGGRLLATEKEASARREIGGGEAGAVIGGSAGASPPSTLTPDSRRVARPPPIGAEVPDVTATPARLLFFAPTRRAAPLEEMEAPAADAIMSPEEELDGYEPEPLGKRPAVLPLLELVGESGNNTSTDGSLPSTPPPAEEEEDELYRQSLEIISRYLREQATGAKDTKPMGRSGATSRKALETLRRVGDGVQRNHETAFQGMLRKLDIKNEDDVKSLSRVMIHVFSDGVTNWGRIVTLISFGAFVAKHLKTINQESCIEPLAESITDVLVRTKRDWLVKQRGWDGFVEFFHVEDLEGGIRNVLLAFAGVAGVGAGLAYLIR

Structure (SMILES) | AC50 ([1]; Homo sapiens, MOLP-8, 2 h) | Ki [2] | AC50 [1]
COCCN(CCOC)C(=O)[C@H]1/C(F)=C/C[C@H](C)[C@@H](C)S(=O)(=O)NC(=O)c2ccc3c(c2F)N(C[C@@H]2CCCN21)C[C@@]1(CCCc2cc(Cl)ccc21)CO3 [Compound 17] | 234 nM | 0.032 nM | –
C[C@@H]1[C@@H](C)C/C=C(\F)[C@H](C(=O)N(C)CCN2CC(F)(F)C2)N2CCC[C@H]2CN2C[C@@]3(CCCc4cc(Cl)ccc43)COc3ccc(cc32)C(=O)NS1(=O)=O [Compound 87] | 84.8 nM | 0.071 nM | –
COCCCN(C)C(=O)[C@H]1/C(F)=C/C[C@H](C)[C@@H](C)S(=O)(=O)NC(=O)c2ccc3c(c2)N(C[C@@H]2CCCN21)C[C@@]1(CCCc2cc(Cl)ccc21)CO3 (single isomer, unassigned) [Compound 51] | 78.3 nM | 0.04 nM | –
CO[C@H]1CN(C(=O)[C@H]2/C(F)=C/C[C@H](C)[C@@H](C)S(=O)(=O)NC(=O)c3ccc4c(c3)N(C[C@@H]3CCCN32)C[C@@]2(CCCc3cc(Cl)ccc32)CO4)C[C@H]1OC [Compound 60] | 92.3 nM | 0.022 nM | –
C[C@@H]1[C@@H](C)C/C=C(\F)[C@H](C(=O)N2C[C@@H]3OCCO[C@@H]3C2)N2CCC[C@H]2CN2C[C@@]3(CCCc4cc(Cl)ccc43)COc3ccc(cc32)C(=O)NS1(=O)=O [Compound 53] | 169 nM | 0.069 nM | –
COCCN1CCN(C(=O)[C@H]2/C(F)=C/C[C@H](C)[C@@H](C)S(=O)(=O)NC(=O)c3ccc4c(c3)N(C[C@@H]3CCCN32)C[C@@]2(CCCc3cc(Cl)ccc32)CO4)CC1 [Compound 38] | 187 nM | 0.051 nM | –
C[C@@H]1[C@@H](C)C/C=C(\F)[C@H](C(=O)N(C)c2ccccc2)N2CCC[C@H]2CN2C[C@@]3(CCCc4cc(Cl)ccc43)COc3ccc(cc32)C(=O)NS1(=O)=O [Compound 28] | 302 nM | 0.465 nM | –
CC1CN(CCN(C)C(=O)[C@H]2/C(F)=C/C[C@H](C)[C@@H](C)S(=O)(=O)NC(=O)c3ccc4c(c3)N(C[C@@H]3CCCN32)C[C@@]2(CCCc3cc(Cl)ccc32)CO4)CC(C)O1 (mixture of isomers) [Compound 45] | – | 0.113 nM | 113 nM
C[C@@H]1[C@@H](C)C/C=C(\F)[C@H](C(=O)N(C)CCN2CCOCC2C(F)(F)F)N2CCC[C@H]2CN2C[C@@]3(CCCc4cc(Cl)ccc43)COc3ccc(cc32)C(=O)NS1(=O)=O (mixture of isomers) [Compound 50] | 175 nM | 0.146 nM | –
COCCCN(CCCOC)C(=O)[C@H]1/C(F)=C/C[C@H](C)[C@@H](C)S(=O)(=O)NC(=O)c2ccc3c(c2)N(C[C@@H]2CCCN21)C[C@@]1(CCCc2cc(Cl)ccc21)CO3 [Compound 37] | 49.5 nM | 0.061 nM | –
COCCN(CCOC)C(=O)[C@H]1/C(F)=C/C[C@H](C)[C@@H](C)S(=O)(=O)NC(=O)c2cc3c(cc2F)OC[C@]2(CCCc4cc(Cl)ccc42)CN3C[C@@H]2CCCN21 [Compound 18] | 213 nM | 0.05 nM | –
C[C@@H]1[C@@H](C)C/C=C(\F)[C@H](C(=O)N(C)CC2CCOC2)N2CCC[C@H]2CN2C[C@@]3(CCCc4cc(Cl)ccc43)COc3ccc(cc32)C(=O)NS1(=O)=O (single isomer, unassigned) [Compound 57] | – | 0.051 nM | 84.4 nM
C[C@@H]1[C@@H](C)C/C=C(\F)[C@H](C(=O)N(C)C2CCOC2)N2CCC[C@H]2CN2C[C@@]3(CCCc4cc(Cl)ccc43)COc3ccc(cc32)C(=O)NS1(=O)=O (single isomer, unassigned) [Compound 69] | 118 nM | 0.049 nM | –
COCCN(CCOC)C(=O)[C@H]1/C(F)=C/C[C@H](C)CS(=O)(=O)NC(=O)c2ccc3c(c2)N(C[C@@H]2CCCN21)C[C@@]1(CCCc2cc(Cl)ccc21)CO3 [Compound 88] | 116 nM | 0.029 nM | –
C[C@@H]1[C@@H](C)C/C=C(\F)[C@H](C(=O)N(C)CCN2CCCOCC2)N2CCC[C@H]2CN2C[C@@]3(CCCc4cc(Cl)ccc43)COc3ccc(cc32)C(=O)NS1(=O)=O [Compound 75] | 83 nM | 0.022 nM | –
C[C@@H]1[C@@H](C)C/C=C(\F)[C@H](C(=O)N2CCOC[C@@H]2C)N2CCC[C@H]2CN2C[C@@]3(CCCc4cc(Cl)ccc43)COc3ccc(cc32)C(=O)NS1(=O)=O [Compound 12] | 196 nM | 0.069 nM | –
C[C@@H]1[C@@H](C)C/C=C(\F)[C@H](C(=O)N2CCOCC2)N2CC[C@H]2CN2C[C@@]3(CCCc4cc(Cl)ccc43)COc3ccc(cc32)C(=O)NS1(=O)=O [Compound 7] | 346 nM | 0.223 nM | –
C[C@@H]1[C@@H](C)C/C=C(\F)[C@H](C(=O)N(C)CC2CCCCO2)N2CCC[C@H]2CN2C[C@@]3(CCCc4cc(Cl)ccc43)COc3ccc(cc32)C(=O)NS1(=O)=O (single isomer, unassigned) [Compound 72] | – | 0.061 nM | 75.2 nM
C[C@@H]1COCCN1C(=O)[C@H]1/C(F)=C/C[C@H](C)[C@@H](C)S(=O)(=O)NC(=O)c2ccc3c(c2)N(C[C@@H]2CCCN21)C[C@@]1(CCCc2cc(Cl)ccc21)CO3 (single isomer, unassigned) [Compound 11] | 163 nM | 0.032 nM | –
C[C@@H]1[C@@H](C)C/C=C(\F)[C@H](C(=O)N2CCCC3(CCOC3)C2)N2CCC[C@H]2CN2C[C@@]3(CCCc4cc(Cl)ccc43)COc3ccc(cc32)C(=O)NS1(=O)=O (single isomer, unassigned) [Compound 14] | 266 nM | 0.126 nM | –
C[C@@H]1[C@@H](C)C/C=C(\F)[C@H](C(=O)N(CCO)CCN2CCOCC2)N2CCC[C@H]2CN2C[C@@]3(CCCc4cc(Cl)ccc43)COc3ccc(cc32)C(=O)NS1(=O)=O [Compound 74] | 436 nM | 0.02 nM | –
